Results taken from patent publication US12409201B2, “Care composition and use thereof” (priority 2020, dated 2025).

Key:
[1] = tested on: Rat basophilic leukemia cells (RBL-2H3); assay: MTT cell survival rate of RBL-2H3; format: cell-based; details: positive control group, concentration not given; RBL-2H3, MTT
Method: (§1) Rat basophilic leukemia cells (RBL-2H3) is seeded in a 96-well cell culture plate, with each well containing 5*10^4 cells. Cells are incubated in a 37-degree Celsius incubator with 5% CO2 overnight to allow attachment to the culture plate. Replace the culture medium with culture medium containing the care composition (hereinafter referred to as AMDS) of different dilution rates (1/1600, 1/800, 1/400, 1/200, and 1/100) and control groups (a blank control group and a positive control group, which is incubated in culture medium containing quercetin). After 30 minutes of incubation, A23187 (1 μg/mL) is added and allowed reaction for an hour. β-hexosaminidase level is analyzed by applying cell culture supernatant to enzyme-linked immunosorbent assay (ELISA). Replace the culture medium with that containing MTT (0.5 mg/mL), followed with 2-hour incubation. Discard the MTT-medium solution, and add DMSO (150 μL/well) to each well. Let sit in room temperature for 10 minutes, allowing the purple formazan to fully dissolve. The cell survival rate is calculated and determined by detecting the optical density (O.D.) at wavelength 570 in a spectrophotometer. Cell survival rate (%)=(sample OD570/blank control group OD570)*100%. […] The lower the β-hexosaminidase, the greater the anti-allergy effect. […]

[2] = tested on: Rat basophilic leukemia cells (RBL-2H3); assay: β-hexosaminidase level (ELISA) in A23187-stimulated RBL-2H3 cells, anti-allergy effect; format: cell-based; details: positive control group, concentration not given; RBL-2H3, A23187 1 μg/mL; blank control = 100
Method: as §1

## O=c1c(O)c(-c2ccc(O)c(O)c2)oc2cc(O)cc(O)c12 [quercetin]
[1]
  Cell survival rate (%): 87.97%
[2]
  β-hexosaminidase (%): 1.8%
